Results from US4521335A, “Aglycone and pseudo-aglycones of the AAD 216 antibiotics” (SmithKline Beckman Corporation, priority 1984, dated 1985).

Key:
[1] = system: inoculum (rumen cannula filtrate); assay: rumen in vitro model, growth promotant activity; details: for GLU (% Control): glucose; for Propionate % (% Control): propionate as percentage of total VFA; for VFA (% Control): total volatile fatty acids; for LYS (% Control): lysine
[2] = system: inoculum (ileal or cecal cannula filtrate); assay: swine in vitro model, growth promotant activity; details: 5 hours, 37° C.; for GLU (% Control): glucose; for LAC (% Control): lactic acid; for LYS (% Control): lysine; for VFA (% Control): total volatile fatty acids

CC[C@@]1([C@H]2O[C@H]([C@H]3O[C@@](O)(CO)[C@H](C)C[C@@H]3C)C[C@H]2C)CC[C@H]([C@@]2(C)CC[C@]3(C[C@H](O)[C@@H](C)[C@@H]([C@H](C)[C@H](OC)[C@@H](C)C(=O)O)O3)O2)O1 [Monensin Sodium]
GLU (% Control) ([1]; experiment III, 0.5 ppm): 11 % Control | Propionate % (% Control) ([1]; experiment III, 0.5 ppm): 119 % Control | VFA (% Control) ([1]; experiment III, 0.5 ppm): 94 % Control | GLU (% Control) ([1]; experiment III, 5.0 ppm): 126 % Control | LYS (% Control) ([1]; experiment III, 5.0 ppm): 141 % Control | Propionate % (% Control) ([1]; experiment III, 5.0 ppm): 149 % Control | VFA (% Control) ([1]; experiment III, 5.0 ppm): 104 % Control | GLU (% Control) ([1]; experiment III, 50.0 ppm): 0 % Control | LYS (% Control) ([1]; experiment III, 50.0 ppm): 147 % Control | Propionate % (% Control) ([1]; experiment III, 50.0 ppm): 156 % Control | LYS (% Control) ([1]; experiment IV, 5.0 ppm): 595 % Control | Propionate % (% Control) ([1]; experiment IV, 5.0 ppm): 161 % Control | VFA (% Control) ([1]; experiment IV, 5.0 ppm): 106 % Control

Virginiamycin
GLU (% Control) ([2]; experiment I, 1.67 ppm): 182 % Control | LAC (% Control) ([2]; experiment I, 1.67 ppm): 70 % Control | LYS (% Control) ([2]; experiment I, 1.67 ppm): 82 % Control | GLU (% Control) ([2]; experiment I, 16.67 ppm): 191 % Control | LAC (% Control) ([2]; experiment I, 16.67 ppm): 76 % Control | LYS (% Control) ([2]; experiment I, 16.67 ppm): 127 % Control | GLU (% Control) ([2]; experiment I, 166.67 ppm): 197 % Control | LAC (% Control) ([2]; experiment I, 166.67 ppm): 81 % Control | LYS (% Control) ([2]; experiment I, 166.67 ppm): 163 % Control | VFA (% Control) ([2]; experiment I, 166.67 ppm): 93 % Control | GLU (% Control) ([2]; experiment II, 1.67 ppm): 837 % Control | LAC (% Control) ([2]; experiment II, 1.67 ppm): 21 % Control | LYS (% Control) ([2]; experiment II, 1.67 ppm): 96 % Control | VFA (% Control) ([2]; experiment II, 1.67 ppm): 240 % Control

avoparcin
GLU (% Control) ([2]; experiment II, 1.67 ppm): 115 % Control | LAC (% Control) ([2]; experiment II, 1.67 ppm): 102 % Control | LYS (% Control) ([2]; experiment II, 1.67 ppm): 101 % Control
